# According to patent publication US4902700A, “Thiazole derivative and leukotriene antagonist containing the same as the effective ingredients” (Mitsubishi Kasei Corporation, priority 1985, dated 1990):
# Where a name gives a salt, the structure may show the parent alone.
# System: SRS
# Assay: SRS antagonistic action in vitro (isolated guinea pig ileum shrinkage)
# Details: conc. attenuating control shrinkage to 50% (IC50), Tables 2-1 to 2-4, head prints no unit, read-out: Anti-SRS action [minimum effective conc.]
# Method: The ileum end portion of a male Hartley-strain guinea pig weighing 200-450 g was extirpated and after washing its lumen, the ileum was mounted within 5 ml of a tissue bath containing a Tylord solution comprising the following components. […] For removing shrinkage with hystamine and acetylcholine, 10^-7 g/ml of mepylamin and 5×10^-8 g/ml of atropin were added to the above buffer. […] The ileum was loaded passively with 0.5 g of tension and the ileum shrinkage reaction to SRS extracted from guinea pig lung was obtained. The persistent shrinkage height by one unit of SRS (corresponding to 5 ng of hystamine) was used as control.
row,IC50 [M],Compound
1,2e-08,O=C(O)/C=C\C(=O)Nc1cccc(/C=C/c2nc(-c3ccccc3)cs2)c1 [compound 34]
2,5e-07,Cc1csc(/C=C/c2cccc(NC(=O)/C=C\C(=O)O)c2)n1 [compound 54]
3,2e-07,O=C(O)/C=C/C(=O)Nc1cccc(/C=C/c2nc3ccccc3s2)c1 [compound 167]
4,1e-07,O=C(O)C(=O)Nc1cccc(/C=C/c2nc3ccccc3s2)c1 [compound 168]
5,5e-07,COC(=O)CCC(=O)Nc1cccc(/C=C/c2nc3ccccc3s2)c1 [compound 192]
6,5e-08,CCCCC(CC(=O)Nc1cccc(/C=C/c2nc3ccccc3s2)c1)C(=O)O (stereo not shown) [compound 227]
7,5e-09,Cc1ccc2sc(/C=C/c3cccc(NC(=O)c4ccccc4C(=O)O)c3)nc2c1 [compound 231]
8,5e-08,Cc1cc(C(=O)O)c(C(=O)Nc2cccc(/C=C/c3nc(-c4ccccc4)cs3)c2)cc1C [compound 253]
9,2e-05,CCCCCCc1csc(/C=C/c2cccc(NC(=O)c3ccccc3C(=O)O)c2)n1 [compound 287]
10,1e-07,CCCCCCCc1csc(/C=C/c2cccc(NC(=O)c3ccccc3C(=O)O)c2)n1 [compound 291]
11,5e-05,CC(C)(C)c1csc(/C=C/c2cccc(NC(=O)CCCC(=O)O)c2)n1 [compound 298]
12,2e-09,CC(C)c1csc(/C=C/c2cccc(NC(=O)CC(C(=O)O)c3ccccc3)c2)n1 (stereo not shown) [compound 307]
13,5e-09,CCc1nc(/C=C/c2cccc(NC(=O)c3cc(C)c(C)cc3C(=O)O)c2)sc1C [compound 328]
14,1e-07,CCCc1nc(/C=C/c2cccc(NC(=O)/C=C\C(=O)O)c2)sc1CC [compound 332]

row,Compound,IC50 [M]
1,O=C(O)[C@H]1CCCC[C@H]1C(=O)Nc1cccc(/C=C/c2nc3ccccc3s2)c1 (relative stereo) [compound 3],5e-08
2,O=C(O)c1ccccc1C(=O)Nc1cccc(/C=C/c2nc3ccccc3s2)c1 [compound 2],5e-09

# Same assay, conditions: conc. attenuating control shrinkage to 50% (IC50), Tables 2-6 to 2-11 and Table 3, read-out: Anti-SRS action [minimum effective conc. (M)]
row,IC50 [M],Compound
1,2e-07,O=C(O)/C=C\C(=O)Nc1cccc(NCc2nc3ccccc3s2)c1 [compound 150]
2,1e-06,"CC(C)CCOC(=O)/C=C\C(=O)Nc1cccc(/C=C/c2nc3ccccc3s2)c1 [compound 189, 2-[trans-3-(cis-3-isoamyloxycarbonylpropenamide)styryl]benzothiazole]"
3,2e-07,"CCOC(=O)CCCNc1cccc(/C=C/c2nc3ccccc3s2)c1 [compound 199, 2-[trans-3-(3-ethoxycarbonylpropyl)aminostyryl]benzothiazole]"
4,1e-08,O=C(CC1(C(=O)O)CCCCC1)Nc1cccc(CCc2nc3ccccc3s2)c1 [compound 358]
5,1e-07,O=C(O)/C=C\C(=O)Nc1cccc(OCc2nc3ccccc3s2)c1 [compound 368]
6,1e-05,O=C(O)/C=C\C(=O)Nc1cccc(COCc2nc3ccccc3s2)c1 [compound 369]
7,5e-07,O=C(O)CCCNc1cccc(CCc2nc3ccccc3s2)c1 [compound 376]
8,2e-07,Cc1nc(C=Cc2cccc(NCCCC(=O)O)c2)sc1C [compound 377]
9,1e-08,CCc1csc(C=Cc2cccc(NCCCC(=O)O)c2)n1 [compound 387]
10,1e-07,CCCCc1csc(C=Cc2cccc(NCCCC(=O)O)c2)n1 [compound 389]
11,2e-07,O=C(O)CCCCNc1cccc(/C=C/c2nc3ccccc3s2)c1 [compound 398]
12,1e-05,O=C(O)CCCCCc1cccc(/C=C/c2nc3ccccc3s2)c1 [compound 411]
13,1e-06,"O=C(CCCO)Nc1cccc(/C=C/c2nc3ccccc3s2)c1 [compound 422, 2-[trans-3-(4-hydroxybutanoylamino)styryl]benzothiazole]"
14,5e-07,"C(=C\c1nc2ccccc2s1)/c1cccc(NCCCc2nnn[nH]2)c1 [compound 424, 2-[trans-3-(3-(5-tetrazolyl)propylamino)styryl]benzothiazole]"

row,Compound,IC50 [M]
1,"O=C(O)[C@H]1CCCC[C@H]1C(=O)Nc1cccc(/C=C/c2nc3ccccc3s2)c1 (relative stereo) [compound 414, 2-[trans-3-(cis-2-carboxycyclohexanoyl)aminostyryl]benzothiazole N-methyl-D-glucamine salt]",1e-06
2,"O=C(O)/C=C\C(=O)Nc1cccc(/C=C/c2nc3ccccc3s2)c1 [compound 213, 2-[trans-3-(cis-3-carboxypropenamide)styryl]benzothiazole sodium salt]",5e-08
3,"OCCCCOc1cccc(/C=C/c2nc3ccccc3s2)c1 [compound 423, 2-[trans-3-(4-hydroxybutoxy)styryl]benzothiazole]",1e-05
4,"O=C(O)CCNc1cccc(/C=C/c2nc3ccccc3s2)c1 [compound 426, 2-[trans-3-(2-carboxyethylamino)styryl]benzothiazole sodium salt]",2e-07

# System: LTD4
# Assay: LTD4 antagonistic action in vivo (airway resistance increase, Konzett-Roessler)
# Set-up: species or system guinea pig
# Details: Cavia porcellus, read-out: Airway resistance increase inhibition
row,Compound,inhibition in vivo at 3 mg/kg [%]
1,O=C([O-])CCCNc1cccc(/C=C/c2nc3ccccc3s2)c1.[Na+] [sodium salt],55

# Same assay, conditions: Cavia porcellus; intraduodenal, 3 mg/kg; LTD4 0.1-1.0 μg/kg i.v.; read-out: Airway resistance increase inhibition
row,Compound,inhibition in vivo at 3 mg/kg [%]
1,O=C(CC1(C(=O)O)CCCCC1)Nc1cccc(/C=C/c2nc3ccccc3s2)c1 [compound 223],87
2,CCCCC(CC(=O)Nc1cccc(/C=C/c2nc3ccccc3s2)c1)C(=O)O (stereo not shown) [compound 227],71

# Same assay, conditions: Cavia porcellus; intraduodenal, 10 mg/kg; LTD4 0.1-1.0 μg/kg i.v.
row,Compound,inhibition in vivo at 10 mg/kg [%]
1,CCCc1csc(/C=C/c2cccc(NC(=O)c3ccccc3C(=O)O)c2)n1 [compound 272],37
2,CC(C)(C)c1csc(/C=C/c2cccc(NC(=O)CCC(=O)O)c2)n1 [compound 297],62

# Same assay, conditions: Cavia porcellus; intraduodenal, 30 mg/kg; LTD4 0.1-1.0 μg/kg i.v.
row,Compound,inhibition in vivo at 30 mg/kg [%]
1,"O=C(O)/C=C\C(=O)Nc1cccc(/C=C/c2nc3ccccc3s2)c1 [compound 213, 2-[trans-3-(cis-3-carboxypropenamide)styryl]benzothiazole sodium salt]",51
2,O=C(O)/C=C\C(=O)Nc1cccc(CCc2nc3ccccc3s2)c1 [compound 353],79

# System: not listed separately
# Assay: Acute toxicity test, oral
# Details: mouse, in vivo, male ddy mice, 1% tragacanth suspension, 7 days
# Method: With 4 to 5 ddy-strain male mice of 6 weeks old as one group, the compound of the present invention was orally administered as a suspension in 1% tragacanth solution, and observation was conducted for 7 days and the number of dead mice was examined to obtain the results shown in Table 5.
row,Compound,LD50 at 168 h [mg/kg]
1,O=C([O-])CCCNc1cccc(/C=C/c2nc3ccccc3s2)c1.[Na+],2000 to 3000
2,O=C(O)[C@H]1CCCC[C@H]1C(=O)Nc1cccc(/C=C/c2nc3cc(Cl)ccc3s2)c1 (relative stereo) [compound 26],> 3000
3,O=C(O)[C@H]1CCCC[C@H]1C(=O)Nc1cccc(/C=C/c2nc3ccccc3s2)c1 (relative stereo) [compound 216],> 3000
4,Cc1ccc2sc(/C=C/c3cccc(NC(=O)[C@@H]4CCCC[C@@H]4C(=O)O)c3)nc2c1 (relative stereo) [compound 232],3000
5,O=C(O)[C@H]1CCCC[C@H]1C(=O)Nc1cccc(/C=C/c2nc(-c3ccccc3)cs2)c1 (relative stereo) [compound 248],> 3000
6,O=C(O)[C@H]1CC=CC[C@H]1C(=O)Nc1cccc(/C=C/c2nc(-c3ccccc3)cs2)c1 (relative stereo) [compound 249],1000 to 2000
7,Cc1nc(/C=C/c2cccc(NC(=O)[C@H]3CCCC[C@H]3C(=O)O)c2)sc1C (relative stereo) [compound 315],1000 to 2000
8,Cc1nc(/C=C/c2cccc(NC(=O)[C@H]3CC=CC[C@H]3C(=O)O)c2)sc1C (relative stereo) [compound 317],1030
9,CCc1nc(/C=C/c2cccc(NC(=O)[C@H]3CCCC[C@H]3C(=O)O)c2)sc1C (relative stereo) [compound 324],1380
10,O=C(Nc1cccc(CCc2nc3ccccc3s2)c1)[C@H]1CCCC[C@H]1C(=O)O (relative stereo) [compound 355],1930
11,O=C(O)[C@@H]1CCCC[C@H]1C(=O)Nc1cccc(/C=C/c2nc3ccccc3s2)c1 (relative stereo) [compound 418],< 3000
12,O=C(O)c1ccccc1C(=O)Nc1cccc(/C=C/c2nc3ccccc3s2)c1 [compound 2],> 3000
13,"O=C(O)/C=C\C(=O)Nc1cccc(/C=C/c2nc3ccccc3s2)c1 [compound 213, 2-[trans-3-(cis-3-carboxypropenamide)styryl]benzothiazole sodium salt]",> 3000
14,O=C(O)c1ccccc1C(=O)Nc1cccc(/C=C/c2nc(-c3ccccc3)cs2)c1 [compound 247],> 3000
15,CCCCCc1csc(/C=C/c2cccc(NC(=O)c3ccccc3C(=O)O)c2)n1 [compound 281],> 3000
16,CC(C)c1csc(/C=C/c2cccc(NC(=O)c3ccccc3C(=O)O)c2)n1 [compound 300],1000 to 2000
17,CC(C)c1csc(/C=C/c2cccc(NC(=O)CCCC(=O)O)c2)n1 [compound 303],2000
18,Cc1nc(/C=C/c2cccc(NC(=O)/C=C\C(=O)O)c2)sc1C [compound 313],1560
19,Cc1nc(/C=C/c2cccc(NC(=O)c3ccccc3C(=O)O)c2)sc1C [compound 314],2000 to 3000
20,CCc1nc(/C=C/c2cccc(NC(=O)CCC(=O)O)c2)sc1C [compound 325],2000
21,CCc1nc(/C=C/c2cccc(NC(=O)CCCC(=O)O)c2)sc1C [compound 326],< 3000
22,O=C(O)/C=C\C(=O)Nc1cccc(CCc2nc3ccccc3s2)c1 [compound 353],3310
23,CCc1nc(C=Cc2cccc(NCCCC(=O)O)c2)sc1C [compound 382],1930
